One block for each compound: values may come before it.
What was measured:
[1] = tested on: KG-1 cell lines (human acute myeloid leukemia cells); assay: AML cell (KG1) toxicity in AML-BMEC co-culture high-throughput screening assay; format: cell-based; conditions: percent toxicity to KG-1 cells normalized to DMF
Procedure: FIG. 4. Schematic of high throughput screening assay. AML cells are cultured on bone marrow derived endothelial cells. After 24 hours of exposure to compound treatment, the AML cells and endothelial cells are analyzed for viability using flow cytometry for 7-AAD and annexin. The phase contrast micrographs in the bottom portion of this figure are representative of untreated control and drug treated conditions. In the control situation, spindle shaped endothelial cells appear under the round shaped AML cells. In the drug treated conditions, some compounds disrupt the spindle shaped endothelial cells and lead to their detachment and death. […] This is optimal because of the high toxicity to the malignant cells and low toxicity to stromal cells. Stromal cell viability represents safety.
(§1) The values given for percent toxicity to KG-1 cells is normalized to DMF. To compare the average AML-LSC toxicity vs. AML total toxicity, fresh human primary leukemia bone marrow mononuclear cells were treated with single doses of compounds, 2470-23 and 2470-51, at a single time point, and the killing of the AML leukemia stem cell (LSC) population versus the total AML cell population was quantified (FIG. 1). […] Next, AML-LSC toxicity versus T lymphocyte (Jurkat) toxicity was investigated. […] The single-dose treatments of 2470-23 and 2470-51 on normal healthy blood stem cells (sourced from fresh umbilical cord blood) versus AML LSC were also compared.

[2] = tested on: AML leukemia stem cell (LSC) population (CD34+CD38-CD123+); assay: AML-LSC toxicity vs. AML total toxicity in fresh primary leukemia bone marrow mononuclear cells; format: cell-based, human; conditions: for killing of AML LSC population versus total AML cell population: single dose, single time point, FIG. 1; for depletion of leukemia stem cells: single-dose treatment, FIG. 3
Procedure: FIG. 1. Comparing average AML-LSC toxicity vs. AML total toxicity. Fresh human primary leukemia bone marrow mononuclear cells were treated with single doses of compounds 2470-23 and 2470-51 at a single time point and the killing of the leukemia stem cell (LSC) population (defined as CD34+CD38-CD123+) was quantified versus the total AML cell population.
as §1

[3] = tested on: lymphoid (CD4+ Jurkat) versus myeloid (AML LSC) leukemia cells; assay: AML-LSC toxicity vs. Jurkat toxicity; format: cell-based, human; conditions: single-dose treatment; FIG. 2
Procedure: FIG. 2. Comparison of average AML-LSC toxicity vs. Jurkat toxicity.
as §1

[4] = tested on: normal healthy blood stem cells (fresh umbilical cord blood); assay: Cord blood stem cell toxicity; format: cell-based, human; conditions: single-dose treatment; FIG. 3
Procedure: FIG. 3. Comparison of average AML-LSC toxicity vs. cord blood stem cell toxicity. The single-dose treatments of 2470-23 and 2470-51 on normal healthy blood stem cells (sourced from fresh umbilical cord blood) and AML LSC were compared.
as §1

[5] = tested on: Primary human AML specimens (824, 872, 874); assay: Viability of primary human AML specimens; format: cell-based; conditions: 24 hours at 50 ng/mL; P<0.05; FIG. 5A
[6] = tested on: bone marrow cells from healthy adults; assay: Viability of bone marrow cells from healthy adults; format: cell-based, human; conditions: FIG. 5B
[7] = target: T1, alpha-enolase (Homo sapiens, UniProt P06733); assay: Proteomic target identification (pronase protection, MS/MS); format: binding; conditions: FIG. 7A
T1 construct: endogenous in cells; host or cells: KG-1, primary AML cells (816, LPP4), CD34+ cells; lysates
Procedure: FIG. 6. This schematic illustrates the proteomics work flow in identifying protein targets for the compounds. AML cells (KG-1, AML 1:816, AML 2:LPP4) and health hematopoietic stem/progenitor cells (CD34+) were lysed and then mixed with either vehicle or a compound (e.g., 2470-51). Following compound-protein binding, pronase was used to cleave the proteins. Where the compound bound to proteins, this site was protected from pronase digestion. The peptides were then analyzed via gel-based target identification and label-free mass spectrometry.

[8] = tested on: enolase; assay: Enolase protein expression in AML cells; format: cell-based, human; conditions: FIG. 8A
Text: (§2) FIG. 8A. Enolase protein expression. […] Thus, enolase correlates with malignant transformation, but is not changed by applying compounds of the present invention. FIG. 8B. Effect of compounds on enolase enzyme activity.

[9] = target: enolase (Homo sapiens, UniProt P06733); assay: Enolase enzyme activity; format: biochemical; conditions: FIG. 8B
Text: as §2

[10] = tested on: primary human AML cells; assay: AML engraftment in NRGS mice injected with primary human AML cells; format: in vivo; conditions: 20 mg/kg IP TIW, two-week treatment, FIG. 9
Procedure: FIG. 9. […] Immunocompromised NRGS (NOD.CG-Rag1^tm1MomIl2rg^tm1Wjl (CMV-IL3, CSF2, KITLG) 1Eav/J) mice were given sub-lethal irradiation (200 cGy), followed by tail vein injection of primary human AML cells. At the end of four week, the animals were randomized into two-week treatment groups: vehicle-treated (PBS treatment control), cytarabine-treated 100 mg/kg IP TIW (positive treatment control), and 2470-51 20 mg/kg IP TIW. Bone marrows were examined for the presence of human CD45+ (green) and DAPI).

[11] = Aqueous solubility; format: physicochemical; conditions: aqueous medium
[12] = Microsomal stability, mouse; format: in vitro ADME; conditions: microsomes, read-out: Microsomal Stability, t1/2
[13] = Microsomal stability, rat; format: in vitro ADME; conditions: microsomes, read-out: Microsomal Stability, t1/2
[14] = Microsomal stability, human; format: in vitro ADME; conditions: microsomes, read-out: Microsomal Stability, t1/2
[15] = Human plasma half-life; format: in vitro ADME
[16] = target: CYP450 2C9 (Homo sapiens, UniProt P11712); assay: CYP450 inhibition 2C9; format: in vitro ADME
[17] = target: CYP450 2D6 (Homo sapiens, UniProt P10635); assay: CYP450 inhibition 2D6; format: in vitro ADME
[18] = target: CYP450 3A4 (Homo sapiens, UniProt P08684); assay: CYP450 inhibition 3A4; format: in vitro ADME
[19] = Plasma protein binding; format: in vitro ADME
[20] = PAMPA; format: in vitro ADME

T1 sequence (P06733 whole entry): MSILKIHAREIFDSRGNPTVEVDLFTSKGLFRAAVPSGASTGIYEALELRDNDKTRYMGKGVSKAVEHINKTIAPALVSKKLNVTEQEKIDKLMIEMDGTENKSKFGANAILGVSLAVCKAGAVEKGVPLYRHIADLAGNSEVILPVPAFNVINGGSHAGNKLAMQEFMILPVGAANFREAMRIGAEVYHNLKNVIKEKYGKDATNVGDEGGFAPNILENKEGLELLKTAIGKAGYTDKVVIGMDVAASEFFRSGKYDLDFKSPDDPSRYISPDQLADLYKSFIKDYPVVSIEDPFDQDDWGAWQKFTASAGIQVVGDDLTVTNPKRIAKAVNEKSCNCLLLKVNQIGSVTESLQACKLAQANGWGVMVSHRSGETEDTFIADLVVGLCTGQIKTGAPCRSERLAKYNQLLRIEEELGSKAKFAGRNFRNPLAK
Chain of enolase (Homo sapiens, UniProt P06733) (P06733 whole entry): as above
Chain of CYP450 2D6 (P10635 whole entry): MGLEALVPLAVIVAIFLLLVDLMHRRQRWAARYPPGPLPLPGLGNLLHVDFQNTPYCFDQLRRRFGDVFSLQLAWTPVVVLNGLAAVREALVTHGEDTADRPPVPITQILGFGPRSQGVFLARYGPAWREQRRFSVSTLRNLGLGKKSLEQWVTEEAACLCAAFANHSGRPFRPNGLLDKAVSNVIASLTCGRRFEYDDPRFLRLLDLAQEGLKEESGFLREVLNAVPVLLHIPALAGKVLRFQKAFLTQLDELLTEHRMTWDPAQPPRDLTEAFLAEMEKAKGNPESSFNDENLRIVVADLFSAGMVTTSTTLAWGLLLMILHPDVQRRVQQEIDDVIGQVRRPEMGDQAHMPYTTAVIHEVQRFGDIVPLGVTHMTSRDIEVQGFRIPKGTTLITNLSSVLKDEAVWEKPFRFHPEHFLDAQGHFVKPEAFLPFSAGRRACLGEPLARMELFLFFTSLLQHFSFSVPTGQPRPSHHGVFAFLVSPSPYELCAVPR
Chain of CYP450 2C9 (P11712 whole entry): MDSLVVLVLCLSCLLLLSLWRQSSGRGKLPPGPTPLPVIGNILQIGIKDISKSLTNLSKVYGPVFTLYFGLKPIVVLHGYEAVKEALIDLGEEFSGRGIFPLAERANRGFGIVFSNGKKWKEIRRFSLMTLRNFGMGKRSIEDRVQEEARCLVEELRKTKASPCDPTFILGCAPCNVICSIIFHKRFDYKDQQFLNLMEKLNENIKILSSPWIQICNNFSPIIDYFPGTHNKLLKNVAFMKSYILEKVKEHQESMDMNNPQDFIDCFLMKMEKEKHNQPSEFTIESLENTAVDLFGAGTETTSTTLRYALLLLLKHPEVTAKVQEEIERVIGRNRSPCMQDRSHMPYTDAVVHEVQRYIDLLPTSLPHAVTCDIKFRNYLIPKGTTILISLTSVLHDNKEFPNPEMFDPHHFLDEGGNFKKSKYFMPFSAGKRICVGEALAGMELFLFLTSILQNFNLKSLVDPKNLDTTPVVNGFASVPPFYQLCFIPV
Chain of CYP450 3A4 (P08684 whole entry): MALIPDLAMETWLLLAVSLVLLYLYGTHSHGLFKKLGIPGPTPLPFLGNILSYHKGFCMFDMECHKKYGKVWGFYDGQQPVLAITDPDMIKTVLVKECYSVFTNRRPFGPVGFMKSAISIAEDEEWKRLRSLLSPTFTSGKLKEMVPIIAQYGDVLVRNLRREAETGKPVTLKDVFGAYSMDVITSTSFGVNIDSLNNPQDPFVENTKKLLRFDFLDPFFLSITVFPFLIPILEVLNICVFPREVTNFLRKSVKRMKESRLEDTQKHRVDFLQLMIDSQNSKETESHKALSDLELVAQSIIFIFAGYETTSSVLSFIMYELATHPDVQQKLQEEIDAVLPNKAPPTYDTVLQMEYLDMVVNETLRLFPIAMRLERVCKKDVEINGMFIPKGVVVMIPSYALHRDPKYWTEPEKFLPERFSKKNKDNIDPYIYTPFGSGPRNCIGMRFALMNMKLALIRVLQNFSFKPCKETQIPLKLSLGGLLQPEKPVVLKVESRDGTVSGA

binding to alpha-enolase peptide (MS/MS) [7]: covalently bound
enolase enzymatic activity [9]: reduced in a dose-dependent fashion
solubility [11]: > 100 µM
half-life [12]: 8 min
half-life [13]: 9 min
half-life [14]: 33 min
half-life [15]: > 200 min
IC50 [16]: > 20 µM
IC50 [17]: 10.8 µM
IC50 [18]: > 20 µM
fraction unbound [19]: 0.195
PAMPA [20]: 1 ×10⁻⁶ cm/s
PAMPA (grade in words) [20]: (moderate)
SMILES: CC(C)[C@H](CN)NC[C@H](C)NS(=O)(=O)c1ccc(C(C)(C)C)cc1 [Compound 2470-51]
KG1 toxicity (50 μg/mL) [1]: 93.2%
killing of AML LSC population versus total AML cell population [2]: selectively kills the AML LSC fraction
depletion of leukemia stem cells [2]: do deplete the leukemia stem cells
AML-LSC toxicity vs. Jurkat toxicity [3]: specificity of these compounds for AML
depletion of healthy cord blood stem cells [4]: do not deplete healthy stem cells
AML cell viability compared to vehicle-treated controls [5]: significantly reduced AML cell viability
cell viability of healthy adult bone marrow cells compared to vehicle control [6]: did not reduce cell viability
enolase protein expression relative to vehicle [8]: did not change protein expression
AML engraftment (human CD45+ in bone marrow) [10]: significantly reduced AML engraftment

SMILES: CC(C)C[C@H](CN)NC[C@H](CCO)NS(=O)(=O)c1ccc2ccccc2c1 [Compound 2470-40]
KG1 toxicity (50 μg/mL) [1]: 37.4%

SMILES: CC(C)[C@@H](CN)NC[C@H](C)NS(=O)(=O)c1ccc(C(C)(C)C)cc1 [Compound 2470-15]
KG1 toxicity (50 μg/mL) [1]: 38.4%

SMILES: CC(C)[C@H](CN)NC[C@H](C)NS(=O)(=O)c1ccc2ccccc2c1 [Compound 2470-49]
KG1 toxicity (50 μg/mL) [1]: 46.7%

SMILES: CC(C)[C@@H](CN)NC[C@@H](NS(=O)(=O)c1ccc(I)cc1)C(C)C [Compound 2470-23]
KG1 toxicity (50 μg/mL) [1]: 45.9%
killing of AML LSC population versus total AML cell population [2]: selectively kills the AML LSC fraction
depletion of leukemia stem cells [2]: do deplete the leukemia stem cells
AML-LSC toxicity vs. Jurkat toxicity [3]: specificity of these compounds for AML
depletion of healthy cord blood stem cells [4]: do not deplete healthy stem cells
